Measured values: patent publication US10335388B2, “Combination therapy of a HIF-2-alpha inhibitor and an immunotherapeutic agent and uses thereof” (PELOTON THERAPEUTICS, INC., priority 2015, dated 2019)
Like-named read-outs stand apart in the source and are kept apart here.

What was measured:
[1] = test system: 786-O-Hif-Luc cells; test: Luciferase assay (HIF responsive element reporter); conditions: 24 h
Procedure: A pool of infected cells were then selected against 2 μg/mL of puromycin (P8833, Sigma) for 10 days followed by limited dilution to select single clones.
Each concentration was tested in triplicate. After about 24 hours, luciferase activity was determined using ONE-Glo Luciferase Assay Reagent (E6110, Promega) following the manufacturer's recommended procedure. EC50 were calculated using Dotmatics software.

[2] = target: T1, HIF-2α HIS TAG-PASB Domain (Homo sapiens, UniProt Q99814); test: HIF-2α Scintillation Proximity Assay (SPA); assay type: binding; conditions: displacement of tritiated probe Compound 183
T1 construct: 100 nM HIF-2α HIS TAG-PASB Domain
Procedure: The total assay volume was about 100 μL in the following configuration: 2 μL compound in 100% DMSO, 88 μL buffer with protein and probe and 10 μL of SPA beads. […] The percent inhibition was determined and IC50 values were calculated using the Dotmatics system based on the following equation: % inhibition=[(high control−sample)/(high control−low control)]×100.

[3] = test system: 786-O cells; test: VEGF ELISA assay; assay type: cell-based; conditions: Homo sapiens, 786-0
Procedure: Each concentration was plated in duplicate. About 20 hours later, medium was removed by suction and each well was supplied with 180 μL of growth medium. About 20 µl freshly-made 10× compound stocks were added to each well. […] The EC50 was calculated by GraphPad Prism using the dose-response-inhibition (four parameter) equation. The cell-seeded plate was then subjected to CellTiter-Glo luminescence cell viability assay (Promega) by adding 50 μL of Celltiter Glo reagent into each well and shaking the plate for 8 minutes at 550 rpm (Thermomixer R, Eppendorf) then the luminescence signal immediately read in a plate reader (3 second delay, 0.5 second/well integration time, Synergy 2 multi Detection Microplate reader).

[4] = test system: B16-F10 mouse melanoma cells; test: Mouse melanoma B16-F10 syngeneic tumor model; conditions: C57BL/6 mice, after 14 days of treatment; Compound 163 30 mg/kg BID, α-PD-1 or IgG control 10 mg/kg BIW
[5] = test system: CT26.WT mouse carcinoma cells; test: Mouse colon CT26 syngeneic tumor model; conditions: BALB/c mice, after 20 days of treatment; Compound 163 30 mg/kg BID, α-CTLA-4 or IgG control 10 mg/kg BIW
[6] = read-out: Mean Luciferase EC50 (nM)
[7] = read-out: Mean Luciferase EC50 (nM), 786-O-Hif-Luc cells, about 24 hours

T1 sequence (Q99814 240-350 limits assumed): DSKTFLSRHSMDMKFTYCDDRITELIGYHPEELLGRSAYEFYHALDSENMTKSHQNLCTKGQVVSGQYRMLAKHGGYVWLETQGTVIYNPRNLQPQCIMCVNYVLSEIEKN

Structure (SMILES)	EC50 [1, 6]	IC50 [2]	further results
CC(=NO)c1c(S(=O)(=O)C(F)(F)F)ccc(Oc2cc(F)cc(Cl)c2)c1Br [Compound 106]		250 to 1000 nM	
N#Cc1cc(F)cc(Oc2ccc(S(N)(=O)=O)c3c2[C@H](F)C(F)(F)[C@H]3O)c1 [Compound 339]	250 to 1000 nM		
CS(=O)(=O)c1ccc(OC2CCOCC2)c2c1[C@H](O)C(F)(F)C2 [Compound 775]		250 to 1000 nM	EC50 [1, 7]: 250 to 1000 nM
N#Cc1c(Oc2cc(F)cc(Cl)c2)ccc(S(=O)(=O)C(F)(F)F)c1F [Compound 153]		50 to 249 nM	
N#Cc1cccc(Oc2ccc(S(=O)(=O)C(F)F)c3c2CC[C@H]3O)c1 [Compound 156]	250 to 1000 nM		
O=S(=O)(CF)c1ccc(OC2CC(F)C2)c2c1[C@H](O)C(F)(F)[C@@H]2F (stereo partly shown) [Compound 742]			EC50 [3]: < 50 nM; EC50 [1, 7]: < 50 nM
O[C@H]1c2c(C(F)(F)F)ccc(OC(F)F)c2CC1F (stereo partly shown) [Compound 671]		> 1000 nM	
N#Cc1cc(F)cc(Oc2ccc(S(N)(=O)=O)c3c2[C@@H](F)C(F)(F)[C@H]3O)c1 [Compound 338]	< 50 nM		
CS(=O)(=O)c1ccc(OC2CCOCC2)c2c1[C@H](O)C(F)(F)[C@@H]2F [Compound 796]		< 50 nM	EC50 [1, 7]: 250 to 1000 nM
N#C[C@H]1C[C@H](Oc2ccc(S(=O)(=O)C(F)(F)F)c3c2CC(F)(F)C3O)C1 (stereo partly shown) [Compound 786]		< 50 nM	EC50 [1, 7]: < 50 nM
N#Cc1cncc(Oc2ccc(S(=O)(=O)C(F)(F)F)c3c2CC(F)(F)[C@H]3O)c1 [Compound 235]	< 50 nM		
CCCOc1ccc(S(=O)(=O)C(F)F)c2c1CC(F)(F)[C@H]2O [Compound 676]		50 to 249 nM	EC50 [1, 7]: 50 to 249 nM
CS(=O)(=O)c1ccc(OC[C@H]2CC2(F)F)c2c1[C@H](O)C(F)(F)[C@@H]2F [Compound 769]		50 to 249 nM	EC50 [1, 7]: 250 to 1000 nM
O=S(=O)(c1ccc(O[C@@H]2CCCc3cn[nH]c32)c2c1[C@H](O)C(F)(F)C2)C(F)(F)F [Compound 729]		> 1000 nM	
O=S(=O)(c1ccc(Oc2cc(F)cc(Cl)c2)c2c1[C@H](O)CC2)C(F)F [Compound 1]			EC50 [3]: 250 to 1000 nM
O=S(=O)(c1ccc(Oc2cc(F)cc(Cl)c2)c(Cl)c1CO)C(F)F [Compound 41]	250 to 1000 nM		EC50 [3]: 250 to 1000 nM
CNS(=O)(=O)c1ccc(Oc2cc(F)cc(F)c2)c2c1[C@H](O)C(F)(F)C2 [Compound 251]	50 to 249 nM		
C[C@H]1C[C@@H](O)c2c(S(=O)(=O)C(F)F)ccc(Oc3cc(F)cc(Cl)c3)c21 [Compound 7a]	250 to 1000 nM		
N#Cc1cc(F)cc(Oc2ccc(S(=O)(=O)C(F)F)c3c2CCC3O)c1 (stereo not shown) [Compound 78]			EC50 [3]: 250 to 1000 nM
O=S(=O)(c1ccc(Oc2cc(F)cc(Cl)c2)c2c1C(O)CC2)C(F)F (stereo not shown) [Compound 17]			EC50 [3]: 50 to 249 nM

Structure (SMILES)	EC50 [1, 6]	IC50 [2]	further results
CS(=O)(=O)c1ccc(Oc2cc(F)cc(C#N)c2)c2c1[C@H](O)[C@H](F)[C@@H]2F [Compound 289, 3-[(1S,2S,3R)-2,3-difluoro-1-hydroxy-7-methylsulfonyl-indan-4-yl]oxy-5-fluoro-benzonitrile]	< 50 nM		
O=S(=O)(c1ccc(OC2CCNCC2)c2c1C(O)C(F)(F)C2)C(F)(F)F (stereo not shown) [Compound 606]		> 1000 nM	
O=S(=O)(c1ccc(-c2cccc(O)c2)c2c1[C@H](O)C(F)(F)C2)C(F)(F)F [Compound 564]		> 1000 nM	
O=S(=O)(c1ccc(OC2CC(O)C2)c2c1[C@H](O)C(F)(F)C2)C(F)(F)F (stereo partly shown) [Compound 644]		250 to 1000 nM	EC50 [1, 7]: 250 to 1000 nM
O=S(=O)(c1ccc(Oc2cc(F)cc(Cl)c2)c(Br)c1C=NO)C(F)(F)F [Compound 107]		50 to 249 nM	EC50 [1, 7]: 250 to 1000 nM
N#Cc1cc(F)cc(Oc2ccc(S(=O)(=O)C(F)F)c3c2CCC3F)c1 (stereo not shown) [Compound 202]		250 to 1000 nM	EC50 [1, 7]: > 1000 nM
O=S(=O)(c1ccc(OCC(F)F)c2c1[C@H](O)C(F)(F)C2)C(F)F [Compound 677]		< 50 nM	EC50 [1, 7]: 50 to 249 nM
N#Cc1cc(F)cc(Oc2ccc(S(=O)(=O)C(F)(F)F)c3c2CC[C@H]3O)c1 [Compound 57]	50 to 249 nM		
N#Cc1cc(F)cc(Oc2ccc(S(=O)(=O)C(F)F)c3c2CC[C@H]3O)c1 [Compound 155]	50 to 249 nM		EC50 [3]: 50 to 249 nM
O=S(=O)(c1ccc(OC2CCCNC2)c2c1C(O)C(F)(F)C2)C(F)(F)F (stereo not shown) [Compound 797]		> 1000 nM	
O=S(=O)(CF)c1ccc(O[C@H]2C[C@H](F)C2)c2c1[C@H](O)C(F)(F)[C@@H]2F [Compound 742]		< 50 nM	
N#Cc1ccc(Oc2cc(F)cc(F)c2)c2c1[C@H](O)C(F)(F)C2 [Compound 67]			EC50 [3]: 50 to 249 nM
N#CC1CCc2c(OCC(F)F)ccc(C(F)(F)F)c21 (stereo not shown) [Compound 691]		> 1000 nM	
CC(C)(C)OC(=O)N[C@H]1C[C@@H](Oc2ccc(S(=O)(=O)C(F)(F)F)c3c2CC(F)(F)[C@H]3O)C1 [Compound 722]		> 1000 nM	EC50 [1, 7]: > 1000 nM
O=S(=O)(c1ccc(OC[C@@H]2CC2(F)F)c2c1[C@H](O)C(F)(F)C2)C(F)(F)F [Compound 728]		< 50 nM	EC50 [1, 7]: < 50 nM
O[C@H]1c2c(C(F)(F)F)ccc(OCC(F)F)c2C[C@H]1F [Compound 696]		50 to 249 nM	EC50 [1, 7]: 50 to 249 nM
O=S(=O)(c1ccc(Oc2cc(F)cc(Cl)c2)c(C(F)F)c1)C(F)(F)F [Compound 124]	250 to 1000 nM		EC50 [3]: 250 to 1000 nM
N#Cc1cc(F)cc(Oc2ccc3c(c2C(F)F)[C@@H](N)C(F)(F)S3(=O)=O)c1 [Compound 387]		50 to 249 nM	
CCCOc1ccc(C2CC2)c2c1CC(F)(F)C2O (stereo not shown) [Compound 685]		> 1000 nM	

Second part, led by results:

EC50 [1, 6]	IC50 [2]	Structure (SMILES)	further results
< 50 nM		CS(=O)(=O)c1ccc(Oc2cc(F)cc(C#N)c2)c2c1C(O)C(F)C2 (stereo not shown) [Compound 232]	
50 to 249 nM		N#Cc1cc(F)cc(Oc2ccc(S(=O)(=O)C(F)(F)F)c3c2CC(F)(F)[C@H]3N)c1 [Compound 290]	
< 50 nM		N#Cc1cc(Cl)cc(Oc2ccc(S(=O)(=O)CF)c3c2CC(F)(F)[C@H]3O)c1 [Compound 167]	
> 1000 nM		CS(=O)(=O)c1ccc(Oc2cc(F)cc(C#N)c2)c2c1[C@@H](O)C(F)(F)C2 [Compound 226]	
50 to 249 nM		CS(=O)(=O)c1ccc(Oc2cc(F)cc(C#N)c2)c2c1C(O)C(F)(F)C2 (stereo not shown) [Compound 223]	
< 50 nM		NS(=O)(=O)c1ccc(Oc2cc(F)cc(F)c2)c2c1[C@H](O)C(F)(F)C2 [Compound 256]	
< 50 nM		CS(=O)(=O)c1ccc(Oc2cc(F)cc(C#N)c2)c2c1[C@H](O)[C@H](F)C2 [Compound 231]	
50 to 249 nM		CNS(=O)(=O)c1ccc(Oc2cc(F)cc(C#N)c2)c2c1[C@H](O)C(F)(F)C2 [Compound 254]	
< 50 nM		[2H][C@]1(O)c2c(S(C)(=O)=O)ccc(Oc3cc(F)cc(C#N)c3)c2CC1(F)F [Compound 247]	
50 to 249 nM		CCS(=O)(=O)c1ccc(Oc2cc(F)cc(C#N)c2)c2c1[C@H](O)C(F)(F)C2 [Compound 206]	
50 to 249 nM		N#Cc1cc(F)cc(Oc2ccc(S(N)(=O)=O)c3c2CC(F)(F)[C@H]3O)c1 [Compound 252]	
< 50 nM		[2H]C([2H])([2H])S(=O)(=O)c1ccc(Oc2cc(F)cc(C#N)c2)c2c1[C@]([2H])(O)C(F)(F)C2 [Compound 229]	
50 to 249 nM		CS(=O)(=O)c1ccc(Oc2cc(F)cc(C#N)c2)c2c1[C@H](N)C(F)(F)C2 [Compound 165]	
	< 50 nM	CS(=O)(=O)c1ccc(Oc2cc(F)cc(F)c2)c2c1C(O)C(F)(F)C2 (stereo not shown) [Compound 159]	EC50 [3]: < 50 nM; EC50 [1, 7]: < 50 nM
< 50 nM		CS(=O)(=O)c1ccc(Oc2cc(F)cc(C#N)c2)c2c1[C@H](O)C(F)(F)C2 [Compound 163, (S)-3-((2,2-Difluoro-1-hydroxy-7-(methylsulfonyl)-2,3-dihydro-1H-inden-4-yl)oxy)-5-fluorobenzonitrile]	Tumor size (mm^3) Mean ± SEM [4]: 2133.89 ± 306.44 mm^3; Tumor size (mm^3) Mean ± SEM [5]: 1612 ± 305 mm^3
250 to 1000 nM		CS(=O)(=O)c1ccc(Oc2cc(F)cc(C#N)c2)c2c1[C@H](O)[C@@H](F)C2 [Compound 271]	
	50 to 249 nM	CS(=N)(=O)c1ccc(Oc2cc(F)cc(F)c2)c2c1[C@H](O)C(F)(F)C2 (stereo partly shown) [Compound 192]	EC50 [1, 7]: 250 to 1000 nM
< 50 nM		CS(=O)(=O)c1ccc(Oc2cc(Cl)cc(C#N)c2)c2c1[C@H](O)C(F)(F)C2 [Compound 234]	EC50 [3]: 50 to 249 nM
